Data as given in patent US10080774B2, “Oncolytic adenovirus armed with therapeutic genes” (priority 2002, dated 2018).
Converted amounts (≈) assume the structure as drawn.

Legend:
[1] = tested on: hyCD stable-transfected U251MG cells; experiment: Cell viability assay, 5-FC dose response; type: cell-based, human
Method: (§1) Note the shift to the left of the IC50 curve for the hyCD stable-transfected U251MG cells in the presence of 5-FC. IC50 values for both cultures are indicated.
(§2) U251MG and U87MG cell lines were grown to 95% monolayer confluence. The cells were trypsinized and harvested with 0.25% trypsin/EDTA, plated in 6-well tissue culture plates, and allowed to adhere overnight at 37° C. in 5% CO2 humidified incubators. 5-FU or 5-FC in serial 0.5-log concentrations in 100 μl aliquots was added directly to the cells to achieve final concentrations, as previously described (Miller, 2002). Cells were incubated at 37° C. for 5 days and cell viability by cellular respiration was determined using 3-(4,5-methylthiazole-2-yl)-5-(3-carboxymethoxy-phenyl)-2-(4-sulfonyl)-2H-tetrazolium) (Promega, Madison, Wis.) according to the manufacturer's protocol. The cell survival fraction was measured at each drug concentration as the ratio of absorbance at 490 nm relative to untreated cells. This calculation was normalized for background absorbance of the culture medium alone. The cell survival fraction was plotted against the logarithm of the drug concentration, and IC50 values were calculated using a sigmoidal dose-response curve with variable slope in GraphPad Prism 3.01.

[2] = tested on: parental U251MG cells; experiment: Cell viability assay, 5-FC dose response; type: cell-based; conditions: Homo sapiens, U-251, 120 h, 5 days
Method: as §1, §2

[3] = tested on: U-87 MG xenograft; experiment: Survival with antiangiogenic compounds, glioma xenograft mouse model; type: in vivo, athymic mice; conditions: P>0.5 logrank
Method: Testing the effect of antiangiogenic compounds on the survival of human glioma xenograft mouse model. Comparative survival analysis of the anticancer effect of different antiangiogenic treatments have been performed using the U-87 MG xenograft mouse model). PTK787/ZK 222584 was evaluated as a VEGFR inhibitor (Thomas et al., 2003); and imatinib/Glivec as a potent PDGFRβ inhibitor (Manley et al., 2002). Briefly, human glioma cells (5×10^5 U-87 MG) were engrafted into the caudate nucleus of athymic mice using a guide-screw system as previously described (Fueyo et al., 2003). […] Neither group treatment had long-term survivors.

[4] = Organ uptake after injection of W/Re-188 generator eluant; type: in vivo; conditions: 100 μCi
Method: Urine and later fecal accumulation (at 24 hours) is also observed.
Whole-mount sections of animals were prepared after tail vein injection of ^188Re elutant produced by a Rhenium generator at 100 μCi, which provides additional conformation of the anatomic localization of the images provided by gamma camera assessment. […] The bladder where the isotope is being eliminated is also visualized. Individual organs can be harvested and isotope counts can be determined per gram of tissue as a quantitative measure of radionuclide uptake.

[5] = tested on: U251 cells; experiment: Cell mixing experiments, Tc99O4 uptake after Δ24-NIS infection; type: cell-based, human; conditions: U251 infected with Δ24-NIS
Method: Cells incubated with virus for 1.5 h then washed extensively and mixed at different percentages with uninfected U251 cells. Uptake assays were then performed at 48 h and values are given as fold increase (ratios) of Tc^99O4 within the cells compared to control cells.
U251MG and U87MG glioma cell lines are transiently transfected, then incubated with ^99mTcO4. These in vitro techniques are modifications of an assay developed by Petrich et al. (2002). Briefly, cells are plated into 24-well plates and allowed to achieve 90% confluence. Various titers of Δ24-NIS are added, incubating and infecting the cells for 2 h. The cells are then washed, and the assay performed at 24, 48, and 72 h. The cells are pre-incubated at 37° C. for 30 min in 1 ml of HEPES-buffered Hanks balanced salt solution (bHBSS). […] Cellular radioactivity is released with 1 ml ice-cold 100% ethanol for 20 min, and counted in a cross-calibrated gamma counter. Protein content of the 6 wells per cell line are determined using a BCA assay kit.
Because of the concern that an oncolytic virus could destroy the cells expressing the NIS transgene and blunt the ability to concentrate-adequate amounts of radionuclide, a study were performed to determine the percentage of cells required to obtain significant concentrations of isotope. […] The result is shown in FIG. 11 and is expressed as fold increase (ratios) over control cells.

[6] = biological target: T1, EGFRvIII (Homo sapiens, UniProt P00533, DELINS30-297G); experiment: Membrane fluorescence staining with anti-EGFRvIII peptide-FITC, flow cytometry; type: binding; conditions: 1 μM, 30 min
T1 construct: expressed in transfected cells; host or cells: U-87 MG stably transfected with mutant EGFR (U87MG.ΔEGFR; Nishikawa et al., 1994)
Method: Briefly, the inventors performed membrane fluorescence staining of single-cell suspensions after incubating U-87 MG, U87.wtEGFR, and U-87.ΔEGFRvIII (Nishikawa et al., 1994) with the anti-EGFRvIII peptide (PEPCH1)-FITC (1 μM) (Campa et al., 2000) for 30 min. The cells were then washed twice with PBS and then analyzed for fluorescence with an EPICS XL-MCL flow cytometer (Beckman-Coulter Inc., Miami, Fla.) using a 488 nm argon laser for excitation. Fluorescence was detected with a 520 nm band-pass filter, and all cytometric data was analyzed with the System II software (Beckman-Coulter Inc.). Data are shown as the percentages of FICT-positive cells (empty graph) compared to mock-treated cells (solid graphs) from a representative experiment.

[7] = biological target: Tie2 (Homo sapiens, UniProt Q02763); experiment: Tie2 phosphorylation, immunoprecipitation; type: cell-based; conditions: U-87 MG
Sequence of Tie2 (Q02763 23-1124): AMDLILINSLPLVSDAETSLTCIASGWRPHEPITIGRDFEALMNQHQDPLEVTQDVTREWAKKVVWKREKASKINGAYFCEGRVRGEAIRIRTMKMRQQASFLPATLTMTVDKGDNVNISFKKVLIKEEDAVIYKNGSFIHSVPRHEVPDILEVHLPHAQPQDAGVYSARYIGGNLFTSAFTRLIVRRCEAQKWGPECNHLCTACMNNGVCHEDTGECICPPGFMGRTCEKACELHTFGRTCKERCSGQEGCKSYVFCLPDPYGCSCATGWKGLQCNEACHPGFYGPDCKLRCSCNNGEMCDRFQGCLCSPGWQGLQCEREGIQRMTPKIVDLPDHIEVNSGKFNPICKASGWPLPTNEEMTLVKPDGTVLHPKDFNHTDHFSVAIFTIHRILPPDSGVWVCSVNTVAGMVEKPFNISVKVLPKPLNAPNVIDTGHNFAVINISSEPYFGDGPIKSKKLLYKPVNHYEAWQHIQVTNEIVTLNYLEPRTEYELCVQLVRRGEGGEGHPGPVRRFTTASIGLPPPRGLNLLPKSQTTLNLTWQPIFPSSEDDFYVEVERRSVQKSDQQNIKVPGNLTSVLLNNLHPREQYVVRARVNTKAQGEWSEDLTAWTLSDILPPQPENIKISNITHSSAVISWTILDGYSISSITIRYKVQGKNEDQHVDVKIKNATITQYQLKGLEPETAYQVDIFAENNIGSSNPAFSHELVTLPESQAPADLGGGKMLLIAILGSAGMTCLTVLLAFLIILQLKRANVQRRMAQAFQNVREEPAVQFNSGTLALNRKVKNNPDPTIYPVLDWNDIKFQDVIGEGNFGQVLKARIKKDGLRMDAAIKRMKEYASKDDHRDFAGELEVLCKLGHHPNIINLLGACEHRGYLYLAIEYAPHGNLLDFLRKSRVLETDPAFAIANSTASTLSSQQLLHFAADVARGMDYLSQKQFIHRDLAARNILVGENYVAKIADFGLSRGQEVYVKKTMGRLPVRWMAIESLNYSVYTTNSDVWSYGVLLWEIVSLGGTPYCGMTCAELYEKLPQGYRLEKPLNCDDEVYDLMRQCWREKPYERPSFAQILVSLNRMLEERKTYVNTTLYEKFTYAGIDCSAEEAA
Method: To explore the regulation of Tie2 signaling by Angs in U-87 MG cells, Tie2 was immunoprecipitated from membrane fractions of U-87 MG cells treated with rAng1 (500 ng/ml) for 10 min, and phosphorylation of Tie2 was addressed using anti-phosphotyrosine antibody.

[8] = tested on: CAM; experiment: Angiogenesis in vivo, CAM model; parameters: species or system chicken; conditions: 72 h after treatment
Method: Fertilized chicken eggs (SPAFAS; Charles River Lab., Wilmington, Mass.) will be incubated at 37° C. at 55% humidity for 9 days. An artificial air sac will be created over a region containing small blood vessels in the CAM as described (Brooks et al., 1999). A small window will be cut in the shell after removing 3 ml of albumen. Filter disks (6 mm in diameter) will be coated with cortisone acetate in absolute ethanol (3 mg/mL). The CAM will be locally treated with filter disks saturated with a solution containing bFGF (50 ng/disk; R&D Systems, Minneapolis, Minn.) and VEGF121/rGel (at 1 or 10 nM), rGel (at 1 or 10 nM), or buffer (PBS). The filter will be placed on the CAM in a region with the lowest density of blood vessels, and in the vicinity, as reference, of a large vessel. Angiogenesis will be monitored by photography 3 days after treatment. Images will be captured using an Olympus stereomicroscope (SZ×12) and Spot™ Basic software (Diagnostic Instruments, Inc.). The relative vascular area will be determined by measuring the area taken up by blood vessels. […] The number of blood vessel branch points will be quantify by two researchers, and compared to the treatment controls (Brooks et al., 1999).
Ang-2 inhibits angiogenesis in vivo (CAM model). […] Vascular responses were assessed 72 h later.

[9] = tested on: HU-VEC-C; experiment: Tube formation (vascular-like structures) assay; type: cell-based, human; conditions: 400-800 ng/ML, 18 h
Method: This assay will be performed using an in vitro angiogenesis kit (Chemicon, Temecula, Calif.) according to the manufacturer's instructions. Wells in a 96-well plate will be coated with ECMatrix solution, and 5×10^3 cells will be plated in triplicate wells in a volume of 50 μl of EGM (Clonetics Corp.) containing 2% FBS. The cells will be incubated for 18 h at 37° C., and tube formation will be evaluated by phase-contract microscopy. To determine the viability of cells in these assays, cells will be stained with Hoechst 33342 (5 μg/ml, Sigma) and propidium iodide (2.5 μg/ml, Sigma) for 5 min at 37° C. and analyzed by fluorescence microscopy.
These studies were performed to elucidate the role of Ang-2 role in the process of angiogenesis.

[10] = cited from earlier work

Nc1nc(=O)[nH]cc1F [5-FC, 5-fluorocytosine]
IC50 ([1]; Homo sapiens, U-251, 120 h, U251MG cells expressing hyCD, 5 days): 12.4 µg/mL (≈ 0.0961 mM) | increased sensitivity of hyCD-expressing versus parental cells to 5-FC ([1]; U251MG): approximately 3 orders of magnitude | IC50 [2]: 3090 µg/mL (≈ 24 mM)

Cc1ccc(NC(=O)c2ccc(CN3CCN(C)CC3)cc2)cc1Nc1nccc(-c2cccnc2)n1 [Imatinib]
survival versus vehicle [3]: did not significantly improve the survival

Clc1ccc(Nc2nnc(Cc3ccncc3)c3ccccc23)cc1 [PTK787]
survival versus vehicle [3]: did not significantly improve the survival

[O]=[188Re](=[O])(=[O])[O-] [^188ReO4, Rhenium-188 perrenate]
tissues with uptake of 188ReO4 [4]: thyroid and stomach

[O-][Cl+3]([O-])([O-])O [sodium perchlorate]
inhibition of NIS activity [5]: complete inhibition of NIS activity

HFLIIGFMRRALCGA [PEPCH1, anti-EGFRvIII peptide, FITC-labeled]
binding to EGFRvIII-expressing cells [6]: specific binding

rhAng-2: recombinant angiopoietin 2 protein
effect on Ang1-induced Tie2 phosphorylation [7]: Inhibition of Tie2 phosphorylation | vascular response in CAM [8]: dramatically decreased newly sprouting angiogenic vessels | formation of vascular-like structures [9]: lost their ability to form vascular-like structures

B1: bakers' yeast CD: cytosine deaminase previously isolated from Saccharomyces cerevisiae (protein, UniProt Q12178 1-158, looked up)
Cytosine deaminase: MVTGGMASKWDQKGMDIAYEEAALGYKEGGVPIGGCLINNKDGSVLGRGHNMRFQKGSATLHGEISTLENCGRLEGKVYKDTTLYTTLSPCDMCTGAIIMYGIPRCVVGENVNFKSKGEKYLQTRGHEVVVVDDERCKKIMKQFIDERPQDWFEDIGE
time activity is maintained in solution ([10]; 4° C., pH 5-9): at least 48 hr | time to lose half of activity ([10]; 37° C., crude preparation): 1 h
